Assay results from patent US20050118287A1, “Use of a vanilloid as an anti-snoring element” (LMD, priority 2002, published 2005).

Tested on: snoring
Test: Activity of the shogaol on snoring in a panel of men and women
Assay type: in vivo
Conditions: daily doses corresponding to 20 mg of shogaol
Description: Daily doses corresponding to 20 mg of shogaol taken in the form of an extract according to example 1 or 2 or of pure shogaol according to example 3 were administered to a panel of men and women. The effects manifest themselves after 48 hours of treatment and persist for 48 hours after stopping the latter. […] Without being bound by theory, it appears that the effect of this molecule and of other vanilloids should be linked to their involvement in emission by certain nociceptive neurons of a neurotransmitter, substance P.

shogaol
persistence of the effects after stopping treatment: 48 h | time of treatment after which the effects manifest themselves: 48 h | effect on snoring in the user (taken as extract according to example 1 or 2 or pure shogaol according to example 3): considerably reduces snoring
